Measured values as given in patent US20180311334A1, “Compositions and Methods for Inducing an Immune Response” (Yale University, priority 2017, published 2018).

Columns and labels:
[1] = tested on: murine bone marrow-derived macrophages; assay: qPCR of cytokine mRNA in bone marrow-derived macrophages (BMM); assay type: cell-based, C57BL/6 mice; settings: 1 μM soluble xyliquimod, 12 hours, WT and TLR7KO BMM
Procedure: Finally, before leaving the sortase-based xyliquimod incorporation approach behind altogether, it was tested it in a more physiologically relevant experimental system. To this end, stimulations in murine bone marrow-derived macrophages (BMM) were performed and the resulting immune responses were assessed by quantifying expression of IL-1β, a pro-inflammatory cytokine transcriptionally regulated by NFκB. Besides more accurately recapitulating the physiological response to an immune stimulus than the RAW-NFκB-sLuc assay, the primary macrophage model offered two additional advantages over reporter cell lines. First, the dynamic range of qPCR analysis is far greater than that of the luciferase assay, so smaller differences in immune activation can be detected more readily. […]
After stimulation of BMDCs and BMMs, the supernatant was removed, cells were lysed, and RNA was isolated using the RNeasy kit (Qiagen, Germantown, Md.) according to manufacturer's instructions. cDNA was reverse-transcribed with an oligo(dT) primer using Moloney murine leukemia virus reverse transcriptase (MMLV RT). cDNA was analyzed in triplicate by qPCR amplification using SYBR Green Supermix (Life Technologies, Carlsbad, Calif.) on a Bio-Rad CFX96 Real-Time PCR Detection System (Bio-Rad, Hercules, Calif.). […]

[2] = tested on: WT S. aureus Newman; assay: S. aureus growth in presence of copper (optical density); assay type: cell-based, Staphylococcus aureus; settings: 2 mM copper, 4.25 hours, absorbance at 600 nm
Procedure: WT S. aureus Newman was grown in the presence and absence of 2 mM copper for 4.25 hours. Growth was monitored by optical density: absorbance measurements were taken every 15 minutes at 600 nm.

**Q.** With CCCCc1nc2c(N)nc3ccccc3c2n1Cc1ccc(CN)cc1 [xyliquimod, 1-(4-(aminomethyl)benzyl)-2-butyl-1Himidazo[4,5-c]quinolin-4-amine] as the molecule, how does the “IL-1β mRNA expression” value [1] read?
**A.** Its value is “active in WT and not TLR7KO macrophages”.

**Q.** Which S. aureus growth [2] does the source give for copper here?
**A.** Its S. aureus growth is “completely inhibit S. aureus growth”.
